Columns and labels:
[1] = target: T1, Androgen receptor (Homo sapiens, UniProt P10275)
T1 sequence (P10275 whole entry): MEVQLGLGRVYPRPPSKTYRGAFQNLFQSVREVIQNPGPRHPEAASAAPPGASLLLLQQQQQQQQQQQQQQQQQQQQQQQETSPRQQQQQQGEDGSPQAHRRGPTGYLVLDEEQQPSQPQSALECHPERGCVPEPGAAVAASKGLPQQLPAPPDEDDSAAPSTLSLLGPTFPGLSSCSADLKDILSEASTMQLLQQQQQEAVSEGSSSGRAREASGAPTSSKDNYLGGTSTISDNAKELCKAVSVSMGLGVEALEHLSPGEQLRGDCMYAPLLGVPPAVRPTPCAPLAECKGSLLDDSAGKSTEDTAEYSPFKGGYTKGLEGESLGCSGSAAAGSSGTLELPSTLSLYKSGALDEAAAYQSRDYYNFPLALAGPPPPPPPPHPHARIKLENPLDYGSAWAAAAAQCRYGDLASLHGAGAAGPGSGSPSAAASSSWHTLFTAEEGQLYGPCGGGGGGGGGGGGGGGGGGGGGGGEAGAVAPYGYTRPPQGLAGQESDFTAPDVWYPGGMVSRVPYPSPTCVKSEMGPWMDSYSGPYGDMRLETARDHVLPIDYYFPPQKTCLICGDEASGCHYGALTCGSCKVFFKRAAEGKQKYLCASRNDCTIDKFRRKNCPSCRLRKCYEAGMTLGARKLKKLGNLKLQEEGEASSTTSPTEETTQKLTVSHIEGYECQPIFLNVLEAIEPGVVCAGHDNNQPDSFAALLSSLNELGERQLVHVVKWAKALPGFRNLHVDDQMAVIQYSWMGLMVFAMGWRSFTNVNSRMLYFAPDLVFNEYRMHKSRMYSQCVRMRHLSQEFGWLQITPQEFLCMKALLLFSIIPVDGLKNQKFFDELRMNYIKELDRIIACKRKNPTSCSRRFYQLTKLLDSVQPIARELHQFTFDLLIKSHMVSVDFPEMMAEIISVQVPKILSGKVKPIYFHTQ
Description: Antagonist activity at human androgen receptor expressed in CV1 cells

[2] = target: T1, Androgen receptor; test: biochemical
Description: Binding affinity to human androgen receptor expressed in CV1 cells

[3] = target: T1, Androgen receptor; remark: listed apart in the source
Description: Agonist activity at human androgen receptor expressed in CV1 cells

Compound	IC50 [1] [nM]	Ki [2] [nM]	EC50 [3] [nM]
O=c1cc(C(F)(F)F)c2ccc(NCC(F)(F)F)cc2o1	50	–	–
O=c1cc(C(F)(F)F)c2cc(NC3CCCC3)ccc2[nH]1	42	74	–
O=c1cc(C(F)(F)F)c2ccc(N(CC(F)(F)F)CC(F)(F)F)cc2o1	63	–	73
O=c1cc(C(F)(F)F)c2ccc(NCc3ccccc3)cc2[nH]1	294	163	–
CCC1CCc2cc3c(C(F)(F)F)cc(=O)[nH]c3cc2N1 (stereo unspecified)	14	11	–
CCNc1ccc2[nH]c(=O)cc(C(F)(F)F)c2c1	111	–	–
O=c1cc(C(F)(F)F)c2ccc(NC3CCCC3)cc2[nH]1	149	1000	–
CC1(C)C=Cc2cc3c(C(F)(F)F)cc(O)nc3cc2N1	27	73	–
O=c1cc(C(F)(F)F)c2ccc(NC3CCCCC3)cc2[nH]1	507	1000	–

From ChEMBL document CHEMBL1144605, “Discovery of an androgen receptor modulator pharmacophore based on 2-quinolinones” (Bioorg Med Chem Lett, 2007)
